Columns and labels:
[1] = system: CEM-SS cells; assay: Uptake and metabolism of [3H]PMEA; conditions: 10 μM [3H]PMEA
Method: (§9) The mutant and parental cells were incubated with 10 μM [^3H]PMEA and at various times were analyzed for intracellular levels of PMEA and its metabolites by Partisil SAX HPLC. […] The metabolism of [^3H]PMEA was also examined in both cell lines after longer periods (i.e., 8 and 12 hr) of incubation with 10 μM [^3H]PMEA.
(§10) Exponentially growing cultures were incubated with 10 μM [^3H] PMEA for 8 or 12 hr and the cell extracts were analyzed for PMEA and its metabolites by ion exchange HPLC, as described.
(§11) Exponentially growing CEM-SS and CEM-r1 cells were harvested by centrifugation, resuspended at 1×10^6 cells/ml in fresh medium in the presence of [^3H]PMEA or [^3H]bispom-PMEA, and incubated at 37° C. At the indicated time points, aliquots of the cells were removed and centrifuged through Nyosil 50 (W. F. Nye, Inc., New Bedford, Ma.) at 13,000×g for 60 seconds at 4° C. When bispom-PMEA was investigated, an aliquot of the cell-free medium was also removed and analyzed by HPLC for determination of extracellular metabolites. The cell pellet was extracted with 70% ice-cold methanol and the aqueous phase was collected and analyzed for intracellular tritiated PMEA or tritiated bispom-PMEA and their metabolites by using HPLC analysis, essentially as described previously (23, 24).

[2] = system: CEM-r1 cells; assay: Uptake and metabolism of [3H]PMEA; conditions: for Intracellular levels: CEM-r1, 10 μM [3H]PMEA
Method: as §9, §10, §11

[3] = system: CEM-SS cells; assay: Cytotoxicity assay (growth inhibition, Coulter counter); conditions: CEM-SS
Method: […] Each result is the mean of one representative experiment performed in duplicate. The cultures with the purine nucleosides adenosine, 2′-deoxyadenosine, and arabinosyladenine contained 5 μM deoxycoformycin to inhibit adenosine deaminase activity.
(§1) All assays were performed in 24-well tissue culture plates (Costar, Cambridge, Ma.). […] At the end of the incubation, the cell concentrations, sizes, and volumes were counted in a Coulter counter (Coulter Electronics, Hialeah. Fla.).

[4] = system: CEM-r1 cells; assay: as above; conditions: for Relative Resistance: CEM-r1 vs CEM-SS (Table 3); for Cross-resistance of CEM-r1 cells (in words): relative sensitivity of wild-type and CEM-r1 cells
Method: Selection for PMEA resistance was carried out by exposing CEM-SS cells in culture to increasing concentrations of PMEA, over several months.
The IC50 values were obtained after 2 days of culture. Each result is the mean of one representative experiment performed in duplicate. The cultures with the purine nucleosides adenosine, 2′-deoxyadenosine, and arabinosyladenine contained 5 μM deoxycoformycin to inhibit adenosine deaminase activity.
as §1

[5] = system: CEM-SS cells; assay: Uptake and metabolism of [3H]bispom-PMEA
Method: (§2) Therefore, the metabolism of [^3H]bispom-PMEA (15), a lipophilic prodrug of PMEA, was analyzed in the two cell lines in order to further examine the mechanism of resistance in the mutant cell line.

[6] = system: CEM-r1 cells; assay: Uptake and metabolism of [3H]bispom-PMEA
Method: as §2

[7] = system: CEM-SS cells; assay: Efflux of PMEA from bispom-PMEA loaded cells; format: in vitro ADME, human; conditions: CEM-SS, 3 min incubation, efflux at 15 minutes
Method: (§3) To examine whether the resistant cells could be altered in their capacity to retain the phosphonate analog, the clearance of [^3H]PMEA and its metabolites from CEM-SS and CME-r1 cells was determined. […] Aliquots of cells and medium sampled at different intervals over a period of 2 hr were analyzed by HPLC, and the results are shown in FIG. 4. […] Some of this clearance was probably due to the anabolism of PMEA, because the PMEAp- and PMEApp-associated radioactivity continued to accumulate within the cells, but the majority of the radioactivity was excreted into the medium as PMEA. In contrast to the results with parental cells, loss of intracellular PMEA-associated radioactivity in the resistant CEM-r1 cells was extremely rapid and the majority of the radioactivity within the cells was excreted into the medium within 20-30 minutes of incubation (FIG. 4).
(§4) Both CEM-SS and CME-r1 cells were incubated for 3 minutes with increasing concentrations (range 0.07 mM to 8.80 mM) of the prodrug for the selecting agent, Bis(POM)PMEA. After incubation, the cells were pelleted and reconstituted in drug-free medium, and the amount of PMEA present in the medium and intracellularly was measured 15 minutes after resuspension. The amount of PMEA effluxing out into the medium at 15 minutes increased initially with increasing concentration (FIG. 7A).
(§5) Referring to Table 6 in greater detail, efflux kinetics were studied. Transport analysis of PMEA was conducted as previously described^48. […] The cells were then washed free of radioactivity and then incubated in drug-free medium in the presence of sodium azide and 2-deoxy-D-glucose. At various time periods, the amount of intracellular AZTMP was measured. As reported in Table 6, depletion of ATP led to an inhibition of AZTMP efflux (i.e. a significant accumulation of AZTMP in the CEM-r1 cells but not in the CEM-SS cells).
(§6) At the indicated times, extracts were prepared from the cells and the medium, and the prodrug and its various nucleoside/nucleotide metabolites were analyzed by HPLC as described previously (24).

[8] = system: CEM-r1 cells; assay: Efflux of PMEA from bispom-PMEA loaded cells; format: in vitro ADME, human; conditions: CEM-r1, 3 min incubation, efflux at 15 minutes
Method: as §3, §4
CEM-r1 cells were incubated with 0.07-8.8 mM Bis(POM)PMEA for 3 minutes. The cells were pelleted and reconstituted in either drug-free medium or in medium containing 0.5 mM PMEA, and the amount of PMEA present in the medium and intracellularly was measured 15 minutes after resuspension.
as §5, §6

[9] = system: CEM-SS cells; assay: Phosphorylation of AZT; format: in vitro ADME, human; conditions: 10 μM AZT
Method: (§7) The appearance of the phosphorylated metabolites into the medium was also determined in both the cell lines. AZTDP and AZTTP were not detected in the medium of either CEM-SS or CEM-r1 cells. However, the amount of AZTMP accumulated in the media was approximately 3-fold higher in CEM-r1 cells than in CEM-SS cells.
(§8) The cartridges were conditioned with 10% MeOH Ammonium Phosphate Buffer (5 mM, pH 4.0). The sample was loaded onto the column. […] AZTDP and AZTTP were eluted with 10% MeOH Ammonium Phosphate Buffer (700 mm, pH 4.6).

[10] = system: CEM-r1 cells; assay: Phosphorylation of AZT; format: in vitro ADME, human; conditions: CEM-r1, 10 μM AZT
Method: as §7, §8

[11] = system: CEM-r1 cells; assay: Efflux of [3H]-AZT and its metabolites; format: in vitro ADME, human
Method: Cells were incubated for 60 minutes with [^3H]-AZT (10 μM) after which they were washed free of radioactivity, resuspended in drug-free medium and the intracellular and the extracellular concentration of [^3H]-AZT were measured. […] At least 80% of the AZTMP present intracellularly in CEM-r1 cells was excreted into the medium in 10 minutes (FIG. 6A).
as §5
The suspension was centrifuged at 3,300 rpm for 7 minutes. All but 1 ml of the supernatant medium containing the free drug was aspirated. […] The cell pellet was then washed with ice-cold medium and resuspended at the same concentration in drug-free medium and maintained at 37° C. […] An aliquot of the top layer (cell free media) was analyzed for the quantitation of AZT and its metabolites.

[12] = system: CaCo-2 cells; assay: PMEA transport in transwell culture; format: in vitro ADME; conditions: CaCo-2 transwell
Text: A transwell culture which is permissive for cellular polarization may be used to measure the compartment to compartment flux of putative substrates. […] In addition, it is possible that expression of MPR4 depending if it is basal or apical (and this may vary by organ cultured) may determine if PMEA or PMEA-like drugs are absorbed.

[13] = CEM-r1, 2 days of culture (Table 3)
[14] = CEM-SS, 1 μM [3H]bispom-PMEA, 15 minutes
[15] = CEM-r1, 1 μM [3H]bispom-PMEA, 15 minutes

`Nc1ncnc2c1ncn2CCOCP(=O)(O)OP(=O)(O)O` [PMEAp] was tested, and the Intracellular levels ([1]; 8 hr) was 0.13 µM, the Intracellular levels ([1]; 12 hr) was 0.23 µM and the Intracellular levels ([2]; 8 hr) was 0.005 µM. For the same compound, the Intracellular levels ([2]; 12 hr) was 0.005 µM and the “Intracellular level in CEM-r1 as percent of the wildtype level” value ([2]; CEM-r1 vs CEM-SS, 8 hr) was “(3.8%)”.

For `CC(C)(C)C(=O)OCOP(=O)(COCCn1cnc2c(N)ncnc21)OCOC(=O)C(C)(C)C` [Bispom-PMEA, bis(pivaloyloxymethyl)-9-(2-phosphonylmethoxyethyl)adenine], the IC50 ([3]; 2 days of culture (Table 3)) was 260 nM, the IC50 [4, 13] was 32000 nM and the “Relative Resistance” value [4] was 123. For the same compound, the “Cross-resistance of CEM-r1 cells (in words)” value (“Cross-resistance” for short) [4] was “highly cross-resistant”, the “Metabolite Levels, Cells” value [5, 14] was 0.03 µM and the “Metabolite Levels, Medium” value [5, 14] was 490 nM. The “Radioactivity present in the cells detected as the intact pro-drug” value ([5]; after incubation with [3H]bispom-PMEA, similar in parental and resistant cells) was about 2%, the “Initial uptake, difference between the two cell lines” value ([6]; 1 μM [3H]bispom-PMEA, early time course (120 sec), CEM-SS vs CEM-r1) was “no significant difference” and the “Metabolite Levels, Cells” value [6, 15] was 0.04 µM. The “Metabolite Levels, Medium” value [6, 15] was 429 nM, the “Prodrug concentration above which the amount of PMEA effluxed did not increase significantly” value [7] was “higher than 2.2 mM” and the “Prodrug concentration above which the amount of PMEA effluxed did not increase significantly” value [8] was over 4.4 mM.

In the case of `Nc1ncnc2c1ncn2[C@@H]1O[C@H](CO)[C@@H](O)[C@H]1O` [Adenosine], the IC50 ([3]; Homo sapiens, 48 h) is reported as 38000 nM, the “Relative Resistance” value [4] is reported as 5.4 and the IC50 ([4]; Homo sapiens, 48 h) is reported as 205000 nM. For the same compound, the “Cross-resistance” value [4] was “partially resistant”.

With `Nc1nc(F)nc2c1ncn2[C@@H]1O[C@H](CO)[C@@H](O)[C@@H]1O` [2-Fluoroarabinosyladenine] the IC50 ([3]; 2 days of culture (Table 3)) was 1200 nM, the IC50 [4, 13] was 4400 nM and the “Relative Resistance” value [4] was 3.7. For the same compound, the “Cross-resistance” value [4] was “partially resistant”.

In the case of `Cc1cn([C@H]2C[C@H](N=[N+]=[N-])[C@@H](CO[P@](=O)(O)O[P@](=O)(O)OP(=O)(O)O)O2)c(=O)[nH]c1=O` [AZTTP], the “Appearance in the medium” value [9] is reported as “not detected”, the “Intracellular Concentration” value ([9]; 4 hours) is reported as 1.3 µM and the “Intracellular Concentration” value ([9]; 8 hours) is reported as 1.5 µM. The “Intracellular Concentration” value ([9]; 24 hours) was 1.3 µM, the “Appearance in the medium” value [10] was “not detected” and the “Intracellular Concentration” value ([10]; 4 hours) was 0.36 µM. The “Intracellular Concentration” value ([10]; 8 hours) was 0.34 µM, the “Intracellular Concentration” value ([10]; 24 hours) was 0.43 µM and the “Change of intracellular levels over the time period studied” value [11] was “did not change significantly”. For the same compound, the “Share of total cellular anabolites” value ([11]; human, 10 μM) was 1%.

With prostaglandin A the “Effect on apical to basal transport of PMEA” value [12] was “specifically inhibits” and the “Effect on basal to apical flux of PMEA” value [12] was “no effect”.

In the case of `Nc1nc(Cl)nc2c1ncn2[C@H]1C[C@H](O)[C@@H](CO)O1` [2-Chlorodeoxyadenosine], the IC50 ([3]; Homo sapiens, 48 h) is reported as 80 nM, the “Relative Resistance” value [4] is reported as 5.5 and the IC50 ([4]; Homo sapiens, 48 h) is reported as 400 nM. For the same compound, the “Cross-resistance” value [4] was “partially resistant”.

In the case of `CC[C@]1(O)C[C@@H]2CN(CCc3c([nH]c4ccccc34)[C@@](C(=O)OC)(c3cc4c(cc3OC)N(C)[C@H]3[C@@](O)(C(=O)OC)[C@H](OC(C)=O)[C@]5(CC)C=CCN6CC[C@]43[C@@H]65)C2)C1` [Vinblastine], the IC50 ([3]; Homo sapiens, 48 h) is reported as 1.8 nM, the “Relative Resistance” value [4] is reported as “˜1” and the IC50 ([4]; Homo sapiens, 48 h) is reported as 2.1 nM. For the same compound, the “Cross-resistance” value [4] was “not resistant”.

For `Nc1ncnc2c1ncn2[C@@H]1O[C@H](CO)[C@@H](O)[C@@H]1O` [Arabinosyladenine], the IC50 ([3]; Homo sapiens, 48 h) was 700 nM, the “Relative Resistance” value [4] was “˜1” and the IC50 ([4]; Homo sapiens, 48 h) was 900 nM.

— US6759238B1, “Multidrug resistance associated proteins and uses thereof” (priority 1999, dated 2004)
